Test results taken from patent US7718651B2, “Inhibitors of FtsZ and uses thereof” (priority 2002, dated 2010).
In brackets after ≈: the same amount, converted by molar mass. Where two headings read alike, the source gives them in different places.

Tested on: single drug resistant strains of M. tuberculosis
Test: microbe, parasite or virus in culture
Type: cell-based
Conditions: for MIC: Mycobacterium tuberculosis

Structure (SMILES) | susceptibility of singly resistant strains | MIC (read-out: MIC, EMB-R) [µg/mL] | MIC (read-out: MIC, INH-R) [µg/mL] | MIC (read-out: MIC, KM-R) [µg/mL] | MIC (read-out: MIC, RMP-R) [µg/mL] | MIC (read-out: MIC, CS-R) [µg/mL] | MIC (read-out: MIC, PZA-R) [µg/mL] | MIC (read-out: MIC, TAC-R) [µg/mL]
CCOC(=O)Nc1cc(NC(C)CCCN(CC)CC)c2nc(-c3ccccc3)c(-c3ccccc3)nc2n1 (stereo not shown) [SRI-3072, [8-(4-Diethylamino-1-methyl-butylamino)-2,3-diphenyl-pyrido[2,3-b]pyrazin-6-yl]-carbamic acid ethyl ester] | uniformly susceptible | ≤ 0.1 | 0.78 (≈ 1.48 µM) | ≤ 0.1 | ≤ 0.1 |  |  | 
CCOC(=O)Nc1cc2c(c(N)n1)N=C(c1ccccc1)CCN2 [SRI-7614, (1-Amino-8-phenyl-6,7-dihydro-5H-2,5,9-triaza-benzocyclohepten-3-yl)-carbamic acid ethyl ester] | uniformly susceptible | 3.12 (≈ 9.59 µM) | 6.25 (≈ 19.2 µM) | 6.25 (≈ 19.2 µM) | 3.12 (≈ 9.59 µM) | 3.12 (≈ 9.59 µM) | 3.12 (≈ 9.59 µM) | 3.12 (≈ 9.59 µM)
